Results on four compounds are retold here after ChEMBL document CHEMBL1130839, “Synthesis and pharmacological activities of 13-dehydro derivatives of primary prostaglandins” (Bioorg Med Chem Lett, 1998).

Common to all, as to format: functional
For assay [1], the species on record is Cavia porcellus. The assay can be described thus: Compound was tested for contraction of guinea-pig ileum. To be noted: read-out: ED50 (the source's name).
For assay [2], the species on record is Cavia porcellus. In words: Compound was tested for relaxation of guinea-pig trachea precontracted in histamine.
For assay [3], the species on record is Homo sapiens. The assay can be described thus: Compound was tested for inhibition of ADP-induced human platelet aggregation.
Assay [4] is filed under the species Rattus norvegicus. In words: Compound was tested for contraction of rat isolated uterine. To be noted: read-out: ED50 (the source's name).
Assay [5] is filed under the species Cavia porcellus. The assay can be described thus: Compound was tested for […] PGE2-induced relaxation of guinea-pig trachea precontracted with carbachol.
For assay [6], the species on record is Cavia porcellus. In words: Compound was tested for relaxation of guinea-pig trachea precontracted with histamine.

Consider `CC/C=C\C[C@H](O)C#C[C@H]1[C@H](O)CC(=O)[C@@H]1C/C=C\CCCC(=O)O`, for which, in assay [1], the EC50 amounted to 0.26 µM. Further, the IC50 (in general, the concentration that inhibits the measured activity by half) in assay [2] stood at 5.4 µM; in assay [3] it was 2.6 µM.
As for `CCCCC[C@H](O)C#C[C@@H]1[C@@H](CCCCCCC(=O)O)[C@@H](O)C[C@H]1O`, the EC50 was found to be 0.02 µM in assay [1] and 1 µM in assay [4].
Turning to `CCCCC[C@H](O)C#C[C@H]1[C@H](O)CC(=O)[C@@H]1C/C=C\CCCC(=O)O`, the EC50 in assay [1] is 0.00018 µM. The IC50 in assay [5] was 0.0026 µM; in assay [3], 0.0034 µM.
For the compound `CCCCC[C@H](O)C#C[C@H]1[C@H](O)CC(=O)[C@@H]1CCCCCCC(=O)O`, the EC50 in assay [1] came out at 0.00023 µM. The IC50 worked out at 8.9 µM in assay [6] and 3 µM in assay [3].
